Experimental data published in patent US20080009418A1, “Selective Inhibitors” (Alchemia LTD., priority 2004, published 2008).

How the values were obtained:
Conditions in all cases: compound at 10 μM
[1] = molecular target: T1, Human Melanocortin (MC3) (Homo sapiens, UniProt P41968); assay: Radioligand binding, human melanocortin MC3 membranes, FlashPlate, [125I]-NDP-αMSH
T1 construct: purchased Perkin Elmer Biosignal
How it was run: (§1)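 Cloned human receptor membranes were coated onto FlashPlate wells and incubated with radioligand and compound (added from a 0.5 mM DMSO daughter plate) for 1 hour at room temperature in the dark. Scintillation counting gave percent inhibition, with DMSO defining total and reference ligand defining non-specific binding.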

[2] = molecular target: T2, Human neuropeptide Y (NPY-Y1) (Homo sapiens, UniProt P25929); assay: Radioligand binding, human neuropeptide Y NPY-Y1 membranes, FlashPlate, [125I]-PYY
T2 construct: purchased Perkin Elmer Biosignal
T2 sequence (P25929 1-384): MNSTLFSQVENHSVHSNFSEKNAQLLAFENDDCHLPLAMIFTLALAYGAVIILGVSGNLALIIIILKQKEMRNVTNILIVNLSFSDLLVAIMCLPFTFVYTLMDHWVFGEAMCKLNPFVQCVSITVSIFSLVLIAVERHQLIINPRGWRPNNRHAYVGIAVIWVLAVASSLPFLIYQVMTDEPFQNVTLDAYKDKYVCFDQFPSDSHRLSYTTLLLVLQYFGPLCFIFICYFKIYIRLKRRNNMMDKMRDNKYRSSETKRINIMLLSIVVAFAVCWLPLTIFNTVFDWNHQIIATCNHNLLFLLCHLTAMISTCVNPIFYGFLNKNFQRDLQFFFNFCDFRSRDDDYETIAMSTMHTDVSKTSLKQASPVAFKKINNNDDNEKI
How it was run: as §1

[3] = molecular target: T3, Human melanin-concentrating hormone (MCH1) (Homo sapiens, UniProt Q99705); assay: Radioligand binding, human melanin-concentrating hormone MCH1 membranes, FlashPlate, [125I]-S36057
T3 construct: purchased Perkin Elmer Biosignal
T3 sequence (Q99705 whole entry): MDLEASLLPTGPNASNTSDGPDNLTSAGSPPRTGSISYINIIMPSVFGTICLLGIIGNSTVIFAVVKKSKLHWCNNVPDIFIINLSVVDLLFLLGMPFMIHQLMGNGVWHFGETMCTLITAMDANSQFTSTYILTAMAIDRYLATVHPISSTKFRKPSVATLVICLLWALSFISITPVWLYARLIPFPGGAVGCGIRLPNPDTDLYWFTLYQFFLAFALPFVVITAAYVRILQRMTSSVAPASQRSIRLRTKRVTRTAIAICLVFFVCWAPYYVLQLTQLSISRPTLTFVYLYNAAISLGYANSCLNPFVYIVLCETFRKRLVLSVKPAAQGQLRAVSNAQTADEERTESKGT
How it was run: as §1

[4] = molecular target: T4, Human melanocortin (MC5) (Homo sapiens, UniProt P33032); assay: Radioligand binding, human melanocortin MC5 membranes, FlashPlate, [125I]-NDP-αMSH
T4 construct: purchased Perkin Elmer Biosignal
T4 sequence (P33032 whole entry): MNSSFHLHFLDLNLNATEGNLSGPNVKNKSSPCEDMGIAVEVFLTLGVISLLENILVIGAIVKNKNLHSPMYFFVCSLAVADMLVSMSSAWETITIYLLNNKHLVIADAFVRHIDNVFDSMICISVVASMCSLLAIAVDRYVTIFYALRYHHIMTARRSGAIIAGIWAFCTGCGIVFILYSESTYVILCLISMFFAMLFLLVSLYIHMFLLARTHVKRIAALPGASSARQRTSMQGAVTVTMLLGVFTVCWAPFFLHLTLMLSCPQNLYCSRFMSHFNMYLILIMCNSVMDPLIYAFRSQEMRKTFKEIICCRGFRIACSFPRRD
How it was run: as §1

[5] = molecular target: T5, Mouse urotensin (mUR2) (Mus musculus, UniProt Q8VIH9); assay: Radioligand binding, mouse urotensin mUR2 membranes, FlashPlate, [125I]-Urotensin II
T5 construct: purchased Perkin Elmer Biosignal
T5 sequence (Q8VIH9 1-385): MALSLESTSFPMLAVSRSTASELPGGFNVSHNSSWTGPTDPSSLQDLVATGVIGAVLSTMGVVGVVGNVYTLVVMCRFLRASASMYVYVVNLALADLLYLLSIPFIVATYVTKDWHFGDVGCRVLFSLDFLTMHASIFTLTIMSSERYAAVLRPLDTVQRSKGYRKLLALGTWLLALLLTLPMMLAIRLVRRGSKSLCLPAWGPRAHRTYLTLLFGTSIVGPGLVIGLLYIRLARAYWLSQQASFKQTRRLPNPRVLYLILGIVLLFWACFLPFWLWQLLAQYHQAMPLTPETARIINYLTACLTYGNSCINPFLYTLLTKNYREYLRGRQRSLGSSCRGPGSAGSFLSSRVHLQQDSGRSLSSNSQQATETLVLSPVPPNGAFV
How it was run: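 Cloned mouse urotensin (mUR2) receptor membranes from Perkin Elmer Biosignal were immobilized in FlashPlate microplates using a proprietary coating. Each well got 19.5 μl buffer, then 0.5 μl of DMSO, reference ligand, or compound. Adding 5 μl of [125I]-Urotensin II, diluted to 5× final concentration in binding buffer, started binding. Plates were sealed with TopSeal-A and incubated 1 hour at room temperature in the dark. Wells were counted for 30 seconds each on a TopCount after a 60-second delay, and percentage inhibition was calculated.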

[6] = molecular target: T6, Human μ-opioid (MOP) (Homo sapiens, UniProt P35372); assay: Radioligand binding, human μ-opioid (MOP) membranes, FlashPlate, [3H]-Naloxone
T6 construct: purchased Perkin Elmer Biosignal
T6 sequence (P35372 whole entry): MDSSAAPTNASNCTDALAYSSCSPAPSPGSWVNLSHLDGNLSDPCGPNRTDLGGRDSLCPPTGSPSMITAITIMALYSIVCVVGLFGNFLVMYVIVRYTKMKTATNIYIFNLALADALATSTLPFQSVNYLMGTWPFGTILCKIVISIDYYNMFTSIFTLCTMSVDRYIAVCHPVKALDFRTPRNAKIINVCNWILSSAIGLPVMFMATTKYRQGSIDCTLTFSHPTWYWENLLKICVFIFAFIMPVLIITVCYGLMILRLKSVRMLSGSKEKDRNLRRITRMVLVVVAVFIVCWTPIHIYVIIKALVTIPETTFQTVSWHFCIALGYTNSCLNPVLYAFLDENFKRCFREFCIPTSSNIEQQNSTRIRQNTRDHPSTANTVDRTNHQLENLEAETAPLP
How it was run: as §1

[7] = molecular target: T7, Human neurokinin (NK1) (Homo sapiens, UniProt P25103); assay: Radioligand binding, human neurokinin NK1 membranes, filtration, [125I]-Substance P
T7 construct: purchased Perkin Elmer Biosignal
T7 sequence (P25103 whole entry): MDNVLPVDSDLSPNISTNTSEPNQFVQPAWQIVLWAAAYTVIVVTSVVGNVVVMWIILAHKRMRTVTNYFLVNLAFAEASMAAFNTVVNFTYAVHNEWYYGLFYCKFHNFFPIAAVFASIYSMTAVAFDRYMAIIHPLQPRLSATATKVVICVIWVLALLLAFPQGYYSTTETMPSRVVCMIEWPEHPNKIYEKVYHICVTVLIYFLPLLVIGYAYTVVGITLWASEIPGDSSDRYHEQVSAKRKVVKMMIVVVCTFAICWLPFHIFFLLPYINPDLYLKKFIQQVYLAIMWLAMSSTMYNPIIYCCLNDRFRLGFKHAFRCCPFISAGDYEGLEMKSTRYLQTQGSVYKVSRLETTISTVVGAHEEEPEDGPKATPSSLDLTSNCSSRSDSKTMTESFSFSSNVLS
How it was run: (§2)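 Percent inhibition of radioligand binding measured on recombinant human membranes: NK1 with [125I]-Substance P, KOP with [3H]-Diprenorphine. Incubation 1 h at room temperature, then harvest onto 0.3% PEI-soaked filters, cold Tris-HCl pH 7.4 washes and scintillation counting; non-specific binding from reference ligand wells.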

[8] = molecular target: T8, Human κ-Opioid (KOP) (Homo sapiens, UniProt P41145); assay: Radioligand binding, human κ-opioid (KOP) membranes, filtration, [3H]-Diprenorphine
T8 construct: purchased Perkin Elmer Biosignal
T8 sequence (P41145 whole entry): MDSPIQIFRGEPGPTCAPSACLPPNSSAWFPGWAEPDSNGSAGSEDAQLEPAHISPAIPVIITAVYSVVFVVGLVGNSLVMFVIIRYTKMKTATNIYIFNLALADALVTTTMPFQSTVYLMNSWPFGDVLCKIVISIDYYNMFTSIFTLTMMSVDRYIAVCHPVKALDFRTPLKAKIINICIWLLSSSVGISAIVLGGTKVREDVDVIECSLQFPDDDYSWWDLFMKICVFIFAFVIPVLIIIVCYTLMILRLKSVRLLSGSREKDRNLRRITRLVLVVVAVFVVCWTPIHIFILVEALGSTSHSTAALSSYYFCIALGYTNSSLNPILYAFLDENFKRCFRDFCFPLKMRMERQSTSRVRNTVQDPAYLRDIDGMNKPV
How it was run: as §2

[9] = molecular target: T9, Human Melanocortin (MC4) (Homo sapiens, UniProt P32245); assay: Radioligand binding, human melanocortin MC4 membranes, FlashPlate, [125I]-NDP-αMSH
T9 construct: purchased Perkin Elmer Biosignal
T9 sequence (P32245 whole entry): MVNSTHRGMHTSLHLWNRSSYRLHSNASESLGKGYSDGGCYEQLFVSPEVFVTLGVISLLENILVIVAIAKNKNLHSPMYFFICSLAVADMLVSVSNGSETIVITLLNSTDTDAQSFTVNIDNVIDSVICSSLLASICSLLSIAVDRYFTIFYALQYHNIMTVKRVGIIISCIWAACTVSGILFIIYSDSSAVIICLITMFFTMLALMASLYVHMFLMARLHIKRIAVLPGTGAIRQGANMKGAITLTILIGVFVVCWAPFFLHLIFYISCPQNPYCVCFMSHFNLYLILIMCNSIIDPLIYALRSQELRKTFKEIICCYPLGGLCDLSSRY
How it was run: as §1

[10] = molecular target: T10, Human δ-opioid (DOP) (Homo sapiens, UniProt P41143); assay: Radioligand binding, human δ-opioid (DOP) membranes, FlashPlate, [3H]-Bremazocine
T10 construct: purchased Perkin Elmer Biosignal
T10 sequence (P41143 whole entry): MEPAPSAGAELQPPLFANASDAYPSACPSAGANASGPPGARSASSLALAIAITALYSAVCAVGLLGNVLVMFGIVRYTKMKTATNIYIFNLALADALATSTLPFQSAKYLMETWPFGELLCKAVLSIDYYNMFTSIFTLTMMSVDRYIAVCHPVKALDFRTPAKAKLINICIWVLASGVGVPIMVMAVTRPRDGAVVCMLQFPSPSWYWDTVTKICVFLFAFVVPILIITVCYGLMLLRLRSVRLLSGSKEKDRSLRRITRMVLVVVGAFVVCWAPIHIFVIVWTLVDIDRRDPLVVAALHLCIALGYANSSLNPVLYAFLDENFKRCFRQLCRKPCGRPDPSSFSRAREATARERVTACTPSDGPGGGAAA
How it was run: as §1

[11] = molecular target: T11, Human opioid (ORL1) (Homo sapiens, UniProt P41146); assay: Radioligand binding, human opioid ORL1 membranes, FlashPlate, [125I]-Nociceptin
T11 construct: purchased Perkin Elmer Biosignal
T11 sequence (P41146 whole entry): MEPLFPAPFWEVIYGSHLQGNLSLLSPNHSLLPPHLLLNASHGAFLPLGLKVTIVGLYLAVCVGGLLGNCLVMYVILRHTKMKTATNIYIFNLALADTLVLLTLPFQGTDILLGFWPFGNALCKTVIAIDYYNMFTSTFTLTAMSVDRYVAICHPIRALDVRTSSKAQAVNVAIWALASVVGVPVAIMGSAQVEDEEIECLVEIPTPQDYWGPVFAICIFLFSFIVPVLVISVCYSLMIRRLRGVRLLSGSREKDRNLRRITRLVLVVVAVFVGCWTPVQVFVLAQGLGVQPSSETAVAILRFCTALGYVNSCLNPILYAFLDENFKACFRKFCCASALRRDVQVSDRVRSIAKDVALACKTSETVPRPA
How it was run: as §1

T1 sequence (P41968 whole entry): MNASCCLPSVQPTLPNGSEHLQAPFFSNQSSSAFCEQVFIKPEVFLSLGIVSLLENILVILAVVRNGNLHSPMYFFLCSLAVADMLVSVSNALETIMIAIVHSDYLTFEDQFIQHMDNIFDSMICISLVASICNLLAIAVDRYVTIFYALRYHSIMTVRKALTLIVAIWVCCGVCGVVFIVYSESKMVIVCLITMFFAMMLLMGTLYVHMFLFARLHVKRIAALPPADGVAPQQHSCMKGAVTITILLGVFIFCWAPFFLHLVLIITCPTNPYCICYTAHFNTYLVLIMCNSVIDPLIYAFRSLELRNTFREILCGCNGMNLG

COC[C@H]1OC(OCCc2ccccc2)[C@H](NC(=O)CNC(=N)N)[C@@H](OCc2ccc(Cl)cc2)[C@@H]1O (stereo partly shown) [compound 48]
A3 radioligand binding inhibition ([1]; human melanocortin MC3 membranes): − (“−” indicates less than 50% inhibition at 10 μM) | A9 radioligand binding inhibition ([2]; human NPY-Y1 membranes): − (“−” indicates less than 50% inhibition at 10 μM) | A6 radioligand binding inhibition ([3]; human MCH1 membranes): + (“+” indicates greater than 50% inhibition at 10 μM) | A5 radioligand binding inhibition ([4]; human melanocortin MC5 membranes): + (“+” indicates greater than 50% inhibition at 10 μM) | A11 radioligand binding inhibition ([5]; mouse urotensin mUR2 membranes): − (“−” indicates less than 50% inhibition at 10 μM) | A7 radioligand binding inhibition ([6]; human μ-opioid (MOP) membranes): − (“−” indicates less than 50% inhibition at 10 μM) | A8 radioligand binding inhibition ([7]; human neurokinin NK1 membranes): − (“−” indicates less than 50% inhibition at 10 μM) | A2 radioligand binding inhibition ([8]; human κ-opioid (KOP) membranes): − (“−” indicates less than 50% inhibition at 10 μM) | A4 radioligand binding inhibition ([9]; human melanocortin MC4 membranes): + (“+” indicates greater than 50% inhibition at 10 μM) | A1 radioligand binding inhibition ([10]; human δ-opioid (DOP) membranes): − (“−” indicates less than 50% inhibition at 10 μM) | A10 radioligand binding inhibition ([11]; human ORL1 membranes): − (“−” indicates less than 50% inhibition at 10 μM)

CO[C@H]1[C@H](O)[C@@H](COCc2ccc3ccccc3c2)OC(OCc2ccc(Cl)cc2)[C@@H]1NC(=O)C1CCCN(C(=N)N)C1 (stereo partly shown) [compound 353]
A3: inhibition of radioligand binding, human melanocortin (MC3) ([1]; [125I]-NDP-αMSH): − (“−” indicates less than 50% inhibition at 10 μM) | A9: inhibition of radioligand binding, human neuropeptide Y (NPY-Y1) ([2]; [125I]-PYY): − (“−” indicates less than 50% inhibition at 10 μM) | A6: inhibition of radioligand binding, human melanin-concentrating hormone (MCH1) ([3]; [125I]-S36057): − (“−” indicates less than 50% inhibition at 10 μM) | A5: inhibition of radioligand binding, human melanocortin (MC5) ([4]; [125I]-NDP-αMSH): − (“−” indicates less than 50% inhibition at 10 μM) | A11: inhibition of radioligand binding, mouse urotensin (mUR2) ([5]; [125I]-Urotensin II): − (“−” indicates less than 50% inhibition at 10 μM) | A7: inhibition of radioligand binding, human μ-opioid (MOP) ([6]; [3H]-Naloxone): − (“−” indicates less than 50% inhibition at 10 μM) | A8: inhibition of radioligand binding, human neurokinin (NK1) ([7]; [125I]-Substance P): + (“+” indicates greater than 50% inhibition at 10 μM) | A2: inhibition of radioligand binding, human κ-opioid (KOP) ([8]; [3H]-Diprenorphine): − (“−” indicates less than 50% inhibition at 10 μM) | A4: inhibition of radioligand binding, human melanocortin (MC4) ([9]; [125I]-NDP-αMSH): − (“−” indicates less than 50% inhibition at 10 μM) | A1: inhibition of radioligand binding, human δ-opioid (DOP) ([10]; [3H]-Bremazocine): − (“−” indicates less than 50% inhibition at 10 μM) | A10: inhibition of radioligand binding, human opioid (ORL1) ([11]; [125I]-Nociceptin): − (“−” indicates less than 50% inhibition at 10 μM)
